In patent publication US5962525A, “6,7-disubstituted-2-aminotetralines active as immunomodulators and pharmaceutical compositions containing same” (Sigma-Tau, priority 1990, dated 1999):
Like-named read-outs stand apart in the source and are kept apart here.

Assays:
[1] = LD50, intravenous; conditions: mouse, in vivo, 0.9% saline
Description: LD50 was determined according to Carrol S. Weil's method, Biometrics, pages 249-263 (1952) in male Swiss albino mice weighing 22-24 g.
The various compounds dissolved in 0.9% saline were administered intravenously.

[2] = tested on: murine peritoneal exudate cells (PEC); assay: "In vitro-ex vivo" effect on the phagocytic activity of exudate peritoneal cells (SRBC phagocytosis); parameters: species or system mouse (B6 D2 F1); conditions: 25 mg/kg/day i.p.
Description: Assessment of the "in vitro-ex vivo" effect of ST 557, ST 563, ST 564, ST 570, ST 608 and ST 626 on the phagocytic activity of exudate peritoneal cells (PEC)
Male B6 D2 F1 mice aged 6-8 weeks (5 animals each group) were used.
The compounds were administered i.p. (25 mg/kg/day), ST 557, ST 563 and ST 626 were also administered per os (100 mg/kg/day) from day -5 to day -1 (PEC harvesting at day 0).
The experimental procedure was substantially the same as that described by Williams et al., in "Methods in Immunology and Immunochemistry", Acad. Press. 5: 261 (1976).
In particular, 24 hours following the end of the treatment, PECs from each experimental group were harvested, pooled and their concentration was adjusted to 4×10^6 cells/ml.
To volumes of 250 μl of each PEC sample were added equal volumes of 0.4% SRBC (Sheep Red Blood Cells) opsonized with hyperimmune serum.
The samples (duplicate) were incubated for 1 hour and then subjected to hypotonic shock in order to remove the non-phagocytized SRBC. After restoring the osmolarity, the phagocytes were cytocentrifuged, stained with a differential dye and observed under the microscope.
The results were expressed as:
(a) percentage of cells that have phagocytized with respect to 100 phagocytizing cells;
(b) total number of phagocytized SRBC;
(c) average number of SRBC in each phagocyte.

[3] = Tolerability after oral or intravenous administration; parameters: species or system mouse (Swiss albino); conditions: mouse, in vivo, 7 days observation, read-out: Tolerability, dose
Description: The test was conducted in male Swiss albino mice weighing 22-24 g.
A group of animals (4 animals/dose) which had been kept fasting for 18 hours, were orally administered the compounds ST 557, ST 563, ST 564 and ST 570 dissolved in twice distilled water.
A further group of animals, which had free access to food and water, were administered intravenously the same compounds dissolved in saline it pH 7. All the animals were kept under observation for 7 days.

[4] = tested on: splenocytes; assay: "In vitro-ex vivo" effect on the mytogen (PHA, ConA, LPS)-induced splenocyte proliferation in mice immunodepressed with cyclophosphamide; parameters: species or system mouse (B6 D2 F1); conditions: for S.I. (stimulation index): with respect to the immunodepressed controls; for AUC (area under curve): immunodepressed
Description: Assessment of the "in vitro-ex vivo" effect of ST 557, ST 563 ST 564 on the mytogen (PHA, ConA, LPS)-Induced splenocyte proliferation in mice Immunodepressed with cyclotohosphamide
Male B6 D2 F1 mice aged 7-9 weeks (5 mice per group) were used.
The immunosuppressor (cyclophosphamide) was administered i.p. at the dose of 100 mg/kg at day -5. The compounds were administered i.p. (25 mg/kg/day) and per os (100 mg/kg/day) from day -5 to day -1 (spleen excision at day 0).
Splenocyte proliferation was induced by three different mytogens: PHA and ConA active on T-lymphocytes, and LPS active on B-lymphocytes. Each mytogen was tested at three different concentrations (suboptimal, optimal and superoptimal) corresponding to 0.5, 4 and 6 mcg/ml/well for PHA; 0.5, 4 and 8 mcg/ml/well for ConA and 0.5, 150 and 500 mcg/ml/well for LPS.
The experimental procedure is identical to that described in test 4.
The results are expressed as both AUC (see test 4) and S.I. In order to assess the efficacy of the immunosuppressor and the activity of the tested compounds, S.I. has been determined both for the immunodepressed controls (with respect to the normal controls) and for the immunodepressed treated animals (with respect to the immunodepressed controls), respectively. [formula]

COc1ccc(OCC(O)CNC2CCc3cc(OC)c(OC)cc3C2)cc1 (stereo not shown) [ST 564, 2-[(N-2-hydroxy-3-(4-methoxyphenoxy)propyl)amino]-6,7-dimethoxytetraline]
LD50 [1]: 44.5 mg/kg
Fagocytizing cells [2]: 40.0%
Total n° SRBC phagocytized [2]: 126.6
SRBC per phagocytizing cell ([2]; average number of SRBC in each phagocyte): 3.2
MTD at 168 h ([3]; iv): > 20 mg/kg
MTD at 168 h ([3]; po, os, fasting 18 hours): > 50 mg/kg
S.I. (stimulation index) ([4]; ConA, 25 mg/kg/day i.p.): 1.01
S.I. (stimulation index) ([4]; ConA, 100 mg/kg/day os): 0.78
AUC (area under curve) ([4]; ConA, 25 mg/kg/day i.p.): 514 ± 10 ×10^-3
AUC (area under curve) ([4]; ConA, 100 mg/kg/day os): 577 ± 41 ×10^-3
S.I. (stimulation index) ([4]; LPS, 25 mg/kg/day i.p.): 2.74
S.I. (stimulation index) ([4]; LPS, 100 mg/kg/day os): 0.65
AUC (area under curve) ([4]; LPS, 25 mg/kg/day i.p.): 2533 ± 314 ×10^-3
AUC (area under curve) ([4]; LPS, 100 mg/kg/day os): 3023 ± 257 ×10^-3
S.I. (stimulation index) ([4]; PHA, 25 mg/kg/day i.p.): 2.05
AUC (area under curve) ([4]; PHA, 25 mg/kg/day i.p.): 205 ± 18 ×10^-3
